Biological target: T1, recombinant His-tag Y220C p53 DBD protein (Homo sapiens, UniProt P04637, Y220C)
T1 construct: recombinant His-tag Y220C p53 DBD protein (amino acids #˜94-312)
Test: In vitro DNA binding activity assay (TR-FRET): binding of His-tag Y220C p53 DBD to biotin-labeled consensus DNA
Type: biochemical
Details: SC150 = concentration to increase DNA binding by […], His-tag Y220C p53 DBD, biotin-labeled consensus DNA

| SMILES | Y220C SC150 (μM) |
| --- | --- |
| CN1CC[C@@H](Nc2cccc3c2cc(-c2noc(CNC(=O)[C@@H]4C[C@H]4c4ccc(F)cc4)n2)n3CC(F)(F)F)[C@@H](F)C1 [Compound 210B, (1R,2R)-N-{[3-(4-{[(3S,4R)-3-fluoro-1-methylpiperidin-4-yl]amino}-1-(2,2,2-trifluoroethyl)-1H-indol-2-yl)-1,2,4-oxadiazol-5-yl]methyl}-2-(4-fluorophenyl)cyclopropane-1-carboxamide] | * (* = 0 μM ≤ SC150 < 0.1 μM) |
| CN1CCC(Nc2cccc3c2cc(-c2nnc(CNc4ccc(S(C)(=O)=O)cc4)s2)n3CC(F)(F)F)CC1 [Compound 24B, 2-(5-{[(4-methanesulfonylphenyl)amino]methyl}-1,3,4-thiadiazol-2-yl)-N-(1-methylpiperidin-4-yl)-1-(2,2,2-trifluoroethyl)-1H-indol-4-amine] | ** (** = 0.1 μM ≤ SC150 < 0.5 μM) |
| COCCn1cnc(C(=O)NCc2nc(-c3cc4c(N[C@@H]5CCN(C)C[C@@H]5F)cccc4n3CC(F)(F)F)no2)c1 [Compound 297B, N-{[3-(4-{[(3S,4R)-3-fluoro-1-methylpiperidin-4-yl]amino}-1-(2,2,2-trifluoroethyl)-1H-indol-2-yl)-1,2,4-oxadiazol-5-yl]methyl}-1-(2-methoxyethyl)-1H-imidazole-4-carboxamide] | * (* = 0 μM ≤ SC150 < 0.1 μM) |
| CC(C)Cn1cccc1C(=O)NCc1nc(-c2cc3c(N[C@@H]4CCN(C)C[C@@H]4F)cccc3n2CC(F)(F)F)no1 [Compound 535B, N-{[3-(4-{[(3S,4R)-3-fluoro-1-methylpiperidin-4-yl]amino}-1-(2,2,2-trifluoroethyl)-1H-indol-2-yl)-1,2,4-oxadiazol-5-yl]methyl}-1-(2-methylpropyl)-1H-pyrrole-2-carboxamide] | * (* = 0 μM ≤ SC150 < 0.1 μM) |
| CN1CC[C@@H](Nc2cccc3c2cc(-c2noc(CNC(=O)c4ccnc(C(C)(C)O)c4)n2)n3CC(F)(F)F)[C@@H](F)C1 [Compound 550B, N-{[3-(4-{[(3S,4R)-3-fluoro-1-methylpiperidin-4-yl]amino}-1-(2,2,2-trifluoroethyl)-1H-indol-2-yl)-1,2,4-oxadiazol-5-yl]methyl}-2-(2-hydroxypropan-2-yl)pyridine-4-carboxamide] | * (* = 0 μM ≤ SC150 < 0.1 μM) |
| CN1CC[C@@H](Nc2cccc3c2cc(-c2noc(CNc4ccn[nH]4)n2)n3CC(F)(F)F)[C@@H](F)C1 [Compound 230B, N-[(3S,4R)-3-fluoro-1-methylpiperidin-4-yl]-2-(5-{[(1H-pyrazol-5-yl)amino]methyl}-1,2,4-oxadiazol-3-yl)-1-(2,2,2-trifluoroethyl)-1H-indol-4-amine] | * (* = 0 μM ≤ SC150 < 0.1 μM) |
| COC(=O)c1ccc(C(=O)NCc2nnc(-c3cc4c(NC5CCN(C)CC5)cccc4n3CC(F)(F)F)s2)cc1 [Compound 39B, methyl 4-{[(5-{4-[(1-methylpiperidin-4-yl)amino]-1-(2,2,2-trifluoroethyl)-1H-indol-2-yl}-1,3,4-thiadiazol-2-yl)methyl]carbamoyl}benzoate] | * (* = 0 μM ≤ SC150 < 0.1 μM) |
| CN1CCC(Nc2cccc3c2cc(-c2nnc(CNC(=O)c4ccn(C)c4)s2)n3CC(F)(F)F)CC1 [Compound 77B, 1-methyl-N-[(5-{4-[(1-methylpiperidin-4-yl)amino]-1-(2,2,2-trifluoroethyl)-1H-indol-2-yl}-1,3,4-thiadiazol-2-yl)methyl]-1H-pyrrole-3-carboxamide] | * (* = 0 μM ≤ SC150 < 0.1 μM) |
| CN1CC[C@@H](Nc2cccc3c2cc(-c2noc(CNC(=O)c4ccn(C(C)(C)C)c4)n2)n3CC(F)(F)F)[C@@H](F)C1 (racemic) [Compound 184B, (+/−)-tert-butyl-N-{[3-(4-{[(3R,4S)-3-fluoro-1-methylpiperidin-4-yl]amino}-1-(2,2,2-trifluoroethyl)-1H-indol-2-yl)-1,2,4-oxadiazol-5-yl]methyl}-1H-pyrrole-3-carboxamide] | * (* = 0 μM ≤ SC150 < 0.1 μM) |
| CN1CC[C@@H](Nc2cccc3c2cc(-c2noc(CNC(=O)c4ccn(C5CCCC5)c4)n2)n3CC(F)(F)F)[C@@H](F)C1 [Compound 319B, 1-cyclopentyl-N-{[3-(4-{[(3S,4R)-3-fluoro-1-methylpiperidin-4-yl]amino}-1-(2,2,2-trifluoroethyl)-1H-indol-2-yl)-1,2,4-oxadiazol-5-yl]methyl}-1H-pyrrole-3-carboxamide] | * (* = 0 μM ≤ SC150 < 0.1 μM) |
| O=C(NCc1nnc(-c2cc3c(N[C@@H]4CCNC[C@@H]4F)cccc3n2CC(F)(F)F)s1)OCc1ccccc1 [Compound 70B, benzyl N-{[5-(4-{[(3S,4R)-3-fluoropiperidin-4-yl]amino}-1-(2,2,2-trifluoroethyl)-1H-indol-2-yl)-1,3,4-thiadiazol-2-yl]methyl}carbamate] | * (* = 0 μM ≤ SC150 < 0.1 μM) |
| COCC1(n2ccc(C(=O)NCc3nc(-c4cc5c(N[C@H]6CCOC[C@H]6F)cccc5n4CC(F)(F)F)no3)c2)CC1 [Compound 496B, N-{[3-(4-{[(3S,4S)-3-fluorooxan-4-yl]amino}-1-(2,2,2-trifluoroethyl)-1H-indol-2-yl)-1,2,4-oxadiazol-5-yl]methyl}-1-[1-(methoxymethyl)cyclopropyl]-1H-pyrrole-3-carboxamide] | * (* = 0 μM ≤ SC150 < 0.1 μM) |
| CN1CC[C@@H](Nc2cccc3c2cc(-c2noc(CNC(=O)[C@@H]4C[C@H]4CN4CCOCC4)n2)n3CC(F)(F)F)[C@@H](F)C1 [Compound 245B, (1R,2R)-N-{[3-(4-{[(3S,4R)-3-fluoro-1-methylpiperidin-4-yl]amino}-1-(2,2,2-trifluoroethyl)-1H-indol-2-yl)-1,2,4-oxadiazol-5-yl]methyl}-2-[(morpholin-4-yl)methyl]cyclopropane-1-carboxamide] | * (* = 0 μM ≤ SC150 < 0.1 μM) |
| CN1CC[C@H](Nc2cccc3c2cc(-c2nnc(CNC(=O)c4ccccc4)s2)n3CC(F)(F)F)[C@H](F)C1 [Compound 26B, N-{[5-(4-{[(3R,4S)-3-fluoro-1-methylpiperidin-4-yl]amino}-1-(2,2,2-trifluoroethyl)-1H-indol-2-yl)-1,3,4-thiadiazol-2-yl]methyl}benzamide] | ** (** = 0.1 μM ≤ SC150 < 0.5 μM) |
| CN1CC[C@@H](Nc2cccc3c2cc(-c2noc(CNC(=O)c4ccn(CC(C)(C)O)c4)n2)n3CC(F)(F)F)[C@@H](F)C1 [Compound 252B, N-{[3-(4-{[(3S,4R)-3-fluoro-1-methylpiperidin-4-yl]amino}-1-(2,2,2-trifluoroethyl)-1H-indol-2-yl)-1,2,4-oxadiazol-5-yl]methyl}-1-(2-hydroxy-2-methylpropyl)-1H-pyrrole-3-carboxamide] | * (* = 0 μM ≤ SC150 < 0.1 μM) |
| CN1CCC(Nc2cccc3c2cc(-c2nnc(CNC(=O)C4CC4c4cccs4)s2)n3CC(F)(F)F)CC1 (stereo not shown) [Compound 79B, N-[(5-{4-[(1-methylpiperidin-4-yl)amino]-1-(2,2,2-trifluoroethyl)-1H-indol-2-yl}-1,3,4-thiadiazol-2-yl)methyl]-2-(thiophen-2-yl)cyclopropane-1-carboxamide] | * (* = 0 μM ≤ SC150 < 0.1 μM) |
| CNCc1nnc(-c2cc3c(N[C@@H]4CCN(C)C[C@@H]4F)cccc3n2CC(F)(F)F)s1 (racemic) [Compound 43B, (+/−)-N-[(3R,4S)-3-fluoro-1-methylpiperidin-4-yl]-2-{5-[(methylamino)methyl]-1,3,4-thiadiazol-2-yl}-1-(2,2,2-trifluoroethyl)-1H-indol-4-amine] | **** (**** = 1 μM ≤ SC150 < 10 μM) |
| CN1CCC(n2ccc(C(=O)NCc3nc(-c4cc5c(N[C@@H]6CCN(C)C[C@@H]6F)cccc5n4CC(F)(F)F)no3)c2)C1 (stereo partly shown) [Compound 351B] | * (* = 0 μM ≤ SC150 < 0.1 μM) |
| CC1(n2ccc(C(=O)NCc3nc(-c4cc5c(N[C@@H]6CNCC[C@@H]6F)cccc5n4CC(F)(F)F)no3)c2)CCOCC1 [Compound 420B, N-{[3-(4-{[(3R,4S)-4-fluoropiperidin-3-yl]amino}-1-(2,2,2-trifluoroethyl)-1H-indol-2-yl)-1,2,4-oxadiazol-5-yl]methyl}-1-(4-methyloxan-4-yl)-1H-pyrrole-3-carboxamide] | * (* = 0 μM ≤ SC150 < 0.1 μM) |
| CCN1CC[C@@H](Nc2cccc3c2cc(-c2noc(CNC(=O)c4cnn(C5CCOC5)c4)n2)n3CC(F)(F)F)[C@@H](F)C1 (stereo partly drawn) [Compound 314B, N-{[3-(4-{[(3S,4R)-1-ethyl-3-fluoropiperidin-4-yl]amino}-1-(2,2,2-trifluoroethyl)-1H-indol-2-yl)-1,2,4-oxadiazol-5-yl]methyl}-1-(oxolan-3-yl)-1H-pyrazole-4-carboxamide] | * (* = 0 μM ≤ SC150 < 0.1 μM) |
| COCC(C)(C)n1cc(C(=O)NCc2nc(-c3cc4c(N[C@H]5CCN(C(C)(C)C)C[C@@H]5F)cccc4n3CC(F)(F)F)no2)cn1 (racemic) [Compound 411B, N-{[3-(4-{[(3R,4R)-1-tert-butyl-3-fluoropiperidin-4-yl]amino}-1-(2,2,2-trifluoroethyl)-1H-indol-2-yl)-1,2,4-oxadiazol-5-yl]methyl}-1-(1-methoxy-2-methylpropan-2-yl)-1H-pyrazole-4-carboxamide] | * (* = 0 μM ≤ SC150 < 0.1 μM) |

Same assay, conditions: concentration to increase DNA binding by […], incubated at either 27° C. or 29° C. for 60 min

| SMILES | SC150 (μM) |
| --- | --- |
| CN(C)c1cccc(-c2cc3c(NC4CCS(=O)(=O)CC4)cccc3n2CC(F)(F)F)c1 [Compound 21A, 4-({2-[3-(dimethylamino)phenyl]-1-(2,2,2-trifluoroethyl)-1H-indol-4-yl}amino)-1λ^6-thiane-1,1-dione] | ++ (++ = 2 μM ≤ SC150 < 5 μM) |
